Test results taken from paper PMC4358773, “Highly specific ubiquitin-competing molecules effectively promote frataxin accumulation and partially rescue the aconitase defect in Friedreich ataxia cells” (Neurobiology of Disease, 2015).

Target: T1, frataxin precursor (aa 1-210) (Homo sapiens, UniProt Q16595)
T1 construct: gene FXN; full-length precursor, aa 1-210, recombinant, expressed and purified by GenScript
T1 sequence (Q16595 1-210): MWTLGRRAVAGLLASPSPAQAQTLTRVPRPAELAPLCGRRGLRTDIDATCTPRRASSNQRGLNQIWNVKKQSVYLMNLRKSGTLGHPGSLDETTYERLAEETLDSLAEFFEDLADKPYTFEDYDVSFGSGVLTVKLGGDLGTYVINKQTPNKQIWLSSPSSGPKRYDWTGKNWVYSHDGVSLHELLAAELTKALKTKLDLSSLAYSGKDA
Experiment: intrinsic Trp fluorescence quenching, hyperbolic isotherm
Details: 20 °C; 2 μM protein; ligand 0.5-25 μM; half-saturation binding constant; read-out: L1/2

Compound | Kd [µM]
C/C(=N\NC(=O)c1ccc(C)cc1C)c1ccc2c(c1)Nc1ccccc1S2 [UCM53] | 2.9 ± 0.3
C/C(=N\NC(=O)c1ccccc1)c1ccc2c(c1)Nc1ccccc1S2 [UCM108] | 2.3 ± 0.3
